From ChEMBL document CHEMBL1126212, “A peptide-acridine conjugate with ribonucleolytic activity” (1992)
Peptide text beside a SMILES is read from it. * marks the point of attachment. Acridine9carbonyl = O=C(c1c2ccccc2nc2ccccc12)*

System: Escherichia coli
Assay: Evaluated for the ribosomal RNA cleavage using Gel-permeation analysis as difference in retention time
Type: functional

Compound	Difference in retention time
Cc1ccc2nc3ccccc3c(C=O)c2c1	0.3 min
N[C@@H](Cc1c[nH]cn1)C(=O)N1CCC[C@H]1C(=O)N[C@@H](Cc1c[nH]cn1)C(=O)N[C@@H](CCCCNC(=O)c1c2ccccc2nc2ccccc12)C(=O)O (H-HPHK(Acridine9carbonyl)-OH)	3.4 min
NCCCC[C@H](NC(=O)[C@H](Cc1c[nH]cn1)NC(=O)[C@@H]1CCCN1C(=O)[C@@H](N)Cc1c[nH]cn1)C(N)=O (H-HPHK-NH2)	0.2 min
